Assay results from the supplement of paper PMC10307832.

Experiments:
Experiment in all cases: relative viability (nuclei count vs DMSO), 5 days (fraction); higher = more cells survive
Neratinib + Tozasertib = compound: CCOc1cc2ncc(C#N)c(Nc3ccc(OCc4ccccn4)c(Cl)c3)c2cc1NC(=O)/C=C/CN(C)C [Neratinib] + Cc1cc(Nc2cc(N3CCN(C)CC3)nc(Sc3ccc(NC(=O)C4CC4)cc3)n2)n[nH]1 [Tozasertib] (partner 0.1 µM)
Summary of the method: (§1)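 Lung cancer cell lines were seeded in 1536-well plates and dosed by pin tool the next day, with either a single drug or a fixed anchor-drug dose combined with five library-drug doses (not always all listed) spaced in √10 steps. Five days later, one step fixed the cells and stained their nuclei (final 0.05% Triton X-100, 1% formaldehyde, 1 ug/ml Hoechst), and nuclei were counted on 4× images. Relative viability is the nuclei count in treated wells divided by the count in vehicle wells, and each value is the median of duplicate plates.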

Neratinib + Dasatinib = compound: CCOc1cc2ncc(C#N)c(Nc3ccc(OCc4ccccn4)c(Cl)c3)c2cc1NC(=O)/C=C/CN(C)C [Neratinib] + Cc1nc(Nc2ncc(C(=O)Nc3c(C)cccc3Cl)s2)cc(N2CCN(CCO)CC2)n1 [Dasatinib] (partner 0.075 µM)
Summary of the method: as §1

Neratinib + Luminespib = compound: CCOc1cc2ncc(C#N)c(Nc3ccc(OCc4ccccn4)c(Cl)c3)c2cc1NC(=O)/C=C/CN(C)C [Neratinib] + CCNC(=O)c1noc(-c2cc(C(C)C)c(O)cc2O)c1-c1ccc(CN2CCOCC2)cc1 [Luminespib] (partner 0.01 µM)
Summary of the method: as §1

Neratinib + Alpelisib = compound: CCOc1cc2ncc(C#N)c(Nc3ccc(OCc4ccccn4)c(Cl)c3)c2cc1NC(=O)/C=C/CN(C)C [Neratinib] + Cc1nc(NC(=O)N2CCC[C@H]2C(N)=O)sc1-c1ccnc(C(C)(C)C(F)(F)F)c1 [Alpelisib] (partner 2 µM)
Summary of the method: as §1

| Cell Line | relative viability (Neratinib + Tozasertib; first compound 0.01 µM) | relative viability (Neratinib + Tozasertib; first compound 0.03162 µM) | relative viability (Neratinib + Tozasertib; first compound 0.1 µM) | relative viability (Neratinib + Tozasertib; first compound 0.3162 µM) | relative viability (Neratinib + Tozasertib; first compound 1 µM) | relative viability (Neratinib + Dasatinib; first compound 0.01 µM) | relative viability (Neratinib + Dasatinib; first compound 0.03162 µM) | relative viability (Neratinib + Dasatinib; first compound 0.1 µM) | relative viability (Neratinib + Dasatinib; first compound 0.3162 µM) | relative viability (Neratinib + Dasatinib; first compound 1 µM) | relative viability (Neratinib + Luminespib; first compound 0.01 µM) | relative viability (Neratinib + Luminespib; first compound 0.03162 µM) | relative viability (Neratinib + Luminespib; first compound 0.1 µM) | relative viability (Neratinib + Luminespib; first compound 0.3162 µM) | relative viability (Neratinib + Luminespib; first compound 1 µM) | relative viability (Neratinib + Alpelisib; first compound 0.01 µM) | relative viability (Neratinib + Alpelisib; first compound 0.03162 µM) | relative viability (Neratinib + Alpelisib; first compound 0.1 µM) | relative viability (Neratinib + Alpelisib; first compound 0.3162 µM) | relative viability (Neratinib + Alpelisib; first compound 1 µM) |
| --- | --- | --- | --- | --- | --- | --- | --- | --- | --- | --- | --- | --- | --- | --- | --- | --- | --- | --- | --- | --- |
| NCI-H1793 | 0.317 | 0.354 | 0.293 | 0.176 | 0.143 | 0.43 | 0.457 | 0.321 | 0.34 | 0.264 | 0.153 | 0.182 | 0.153 | 0.164 | 0.157 | 0.708 | 0.664 | 0.472 | 0.519 | 0.296 |
| NCI-H1915 | 0.42 | 0.475 | 0.402 | 0.39 | 0.346 | 0.384 | 0.339 | 0.218 | 0.332 | 0.287 | 0.845 | 0.818 | 0.422 | 0.792 | 0.462 | 1.12 | 1.13 | 1.04 | 0.99 | 0.829 |
| NCI-H1944 | 0.255 | 0.248 | 0.221 | 0.218 | 0.16 | 0.201 | 0.211 | 0.193 | 0.205 | 0.181 |  | 0.669 |  | 0.523 | 0.306 | 0.948 | 0.782 | 0.615 | 0.561 | 0.393 |
| NCI-H1975 | 0.869 |  | 0.698 | 0.324 | 0.106 | 0.443 | 0.505 | 0.313 | 0.124 | 0.146 | 0.289 | 0.174 | 0.311 | 0.123 | 0.186 | 0.85 | 0.738 | 0.546 | 0.153 | 0.192 |
| NCI-H1993 | 0.528 | 0.594 | 0.597 | 0.536 | 0.593 | 0.638 | 0.607 | 0.558 | 0.589 | 0.575 | 0.717 | 0.83 | 0.719 | 0.599 | 0.511 | 0.624 | 0.666 | 0.717 | 0.687 | 0.664 |
| NCI-H2009 | 0.732 | 0.799 | 0.621 | 0.613 | 0.554 | 0.3 | 0.347 | 0.301 | 0.292 | 0.206 | 0.998 | 1.01 | 0.828 | 1.01 | 0.962 | 1.14 | 1.16 | 1.11 | 1.17 | 0.955 |
| NCI-H2023 | 0.389 | 0.33 | 0.292 | 0.211 | 0.141 | 0.576 | 0.562 | 0.473 | 0.479 | 0.42 | 0.999 | 0.871 | 0.579 | 0.709 | 0.579 | 0.62 | 0.611 | 0.511 | 0.445 | 0.298 |
| NCI-H2085 | 0.729 | 0.909 | 0.716 | 0.675 | 0.458 | 0.261 | 0.264 | 0.254 | 0.21 | 0.234 | 0.4 | 0.455 | 0.353 | 0.3 | 0.294 | 1.02 |  | 0.778 | 0.7 | 0.549 |
| NCI-H2087 | 0.239 | 0.274 | 0.197 | 0.193 | 0.134 | 0.936 | 0.888 | 0.605 | 0.584 | 0.373 | 0.16 | 0.172 | 0.151 | 0.14 | 0.148 | 1.15 | 1.11 |  | 1.05 |  |
| NCI-H2126 | 0.851 | 0.857 | 0.794 | 0.673 | 0.397 | 0.589 | 0.602 | 0.523 | 0.426 | 0.338 | 0.932 | 0.853 | 0.828 | 0.822 | 0.464 | 0.829 | 0.723 | 0.724 | 0.679 | 0.382 |
| NCI-H2170 | 0.842 | 0.684 | 0.565 | 0.266 | 0.183 | 0.527 | 0.563 | 0.283 | 0.176 | 0.196 | 0.727 | 0.637 | 0.365 | 0.271 | 0.304 | 0.619 | 0.383 | 0.314 | 0.21 | 0.265 |
| NCI-H2228 | 0.264 | 0.281 | 0.178 | 0.267 | 0.126 | 0.494 | 0.566 | 0.366 | 0.45 | 0.102 | 0.145 | 0.138 | 0.14 | 0.12 | 0.114 | 0.702 | 0.703 | 0.599 | 0.497 | 0.243 |
| NCI-H2347 | 0.539 | 0.624 |  | 0.541 | 0.384 | 0.282 | 0.35 |  | 0.375 | 0.2 | 0.472 | 0.385 |  | 0.483 | 0.289 | 1.1 | 1.11 | 1.02 | 0.935 | 0.9 |
| NCI-H2405 | 0.808 | 0.852 | 0.712 | 0.72 | 0.547 | 0.225 | 0.23 | 0.218 | 0.212 | 0.199 | 0.859 | 0.73 | 0.562 | 0.577 | 0.354 | 0.815 | 0.808 | 0.811 | 0.633 | 0.287 |
| NCI-H3122 | 0.437 | 0.422 | 0.388 | 0.375 | 0.135 | 0.872 | 0.939 | 0.729 | 0.565 | 0.132 | 0.103 | 0.0884 | 0.119 | 0.102 | 0.11 | 0.951 | 0.746 | 0.586 | 0.829 | 0.299 |
| PC-3 [JPC-3] | 0.891 | 0.922 | 0.822 | 0.773 | 0.406 | 1.11 | 1.1 | 0.885 | 0.757 | 0.286 | 0.702 | 0.733 | 0.648 | 0.496 | 0.326 | 1.07 | 1.07 | 1.02 | 0.918 | 0.316 |
